Results from patent publication US20260248788A1, “NEW COMPOUNDS AND TREATMENT OF RENAL CELL CARCINOMA” (TRUSTLIFE THERAPEUTICS INC., priority 2023, published 2026).
Entries after “also recorded” stand apart in the source; their conditions may differ.

Key:
Type in all cases: cell-based, human
BUB1B = experiment: Western blot of BUB1B in Caki-1 cells treated with TG-101209 derivatives; conditions: for expression levels of BUB1B (Western blot): Caki-1 cells, 5 μM of target drug, 1 day (FIG. 41, 56); for expression levels of BUB1B (summary statement): concentration not given
Experimental: (§1) Cell culture 2: Caki-1 was purchased from CLS Cell Lines Service (Germany). The cells were maintained in McCoy's 5A (modified) medium (16600082, Thermo Fisher Scientific, USA) and supplemented with 10% fetal bovine serum (FBS, F7524, Sigma-Aldrich), 1% Penicillin/Streptomycin (P4333, Sigma-Aldrich).
The target drugs developed as alternatives to TG-101209, were dissolved in 0.1% DMSO (41639, Sigma-Aldrich). Caki-1 cells from cell culture 2 were seeded in a 6-well plate at 3×10^5 cells per well. […]
The cells were washed with PBS solution and then lysed with CelLytic M (C2978, Sigma-Aldrich) lysis buffer containing protease inhibitors (11836170001, Roche). The cell lysates were centrifuged at 12 000 rpm for 10 min and supernatants were collected. Protein Assay Dye Reagent (5000006, Bio-Rad) was used for the determination of protein concentration. The absorbance of the proteins was measured spectrophotometrically at 595 nm by a microplate reader (Hidex Sense Beta Plus). Protein electrophoresis was performed using Mini-PROTEAN® TGX™ Precast Gels (4561086, Bio-Rad) and then the separated proteins were transferred to a Trans-Blot Turbo Mini 0.2 μm PVDF Transfer Packs membrane (1704158, Bio-Rad) by using Trans-Blot® Turbo™ Transfer System (Bio-Rad). The membrane was blocked with 5% skim milk for 30 min at 4° C. with gentle rocking. After blocking, the membrane was treated with primary antibodies: Anti-BUB1B (HPA008419, Human Protein Atlas, Sweden) and Anti-Beta actin (ab8227, Abcam) as a loading control overnight at 4° C. on a rocking platform. After the treatment of primary antibodies, the membrane was washed three times with TBS-T buffer (A09-7500-100, Medicago). Then, Goat anti-Rabbit IgG-HRP (ab205718, Abcam) was treated as the secondary antibody for 30 min at 4° C. with gentle rocking.

Caki-1 cells [1] = experiment: MTT cell viability assay; conditions: for change of IC50 values after 2 days compared to 1 day treatment: Caki-1 (FIG. 53-54); for reduction in cell viability (MTT) / effect on cell viability (MTT): 1 day; for cell viability over the treatment period (MTT): 27 h, 48 h and 72 h (FIG. 55); for IC50 values compared with TG-101209: Caki-1, 1 and 2 days (FIG. 53-54); for cell viability of treated cells (summary statement) / reduction in cell viability according to MTT assay (conclusion): concentration not given; for reduction in cell viability according to MTT assay (conclusion): Caki-1
Experimental: as §1
The cytotoxic effects of the TG-101209 and its alternatives on the Caki-1 cells were tested by MTT (Thiazolyl Blue Tetrazolium Bromide) method. 1.5×10^4 cells were seeded per well in a 96-well plate in 100 μL growth media. […] After the incubation period, 5 mg/ml MTT (M2128, Sigma-Aldrich) solution in PBS (10 μL) was added to each well. After 1 hour, the MTT solution and all media were removed from the wells. 100 μl of DMSO was added and mixed to dissolve the formazan crystals. Cell viability was analysed by measuring the absorbance of the dissolved formazan at a wavelength of 570 nm with a microplate reader (Hidex Sense Beta Plus).

Caki-1 cells [2] = experiment: LDH cytotoxicity assay; conditions: for cytotoxic effect and dose dependence: Caki-1, 10 nM-30 μM; for cytotoxicity (LDH assay): Caki-1, 10 μM; for cytotoxicity (LDH assay) / Ranking, Cytotoxicity (%): 1 day; for Ranking, Cytotoxicity (%): top five, LDH assay, 10 μM, rank 1 = highest; for cytotoxicity according to LDH assay (conclusion): Caki-1; for cytotoxicity according to LDH assay (conclusion) / cytotoxicity (summary statement): concentration not given; for cell death / toxicity (LDH): Caki-1, 10 and 30 μM
Experimental: as §1
Lactate dehydrogenase (LDH) assay was performed with LDH Assay Kit (ab65393). […] 20 μl of media was analysed with LDH Assay Kit as per manufacturer's instruction.

Caki-1 cells [3] = experiment: Cell morphology (DIC images) of treated Caki-1 cells; conditions: Caki-1, 10 μM, 1 day; for effect on the cell morphology: DIC images (FIG. 52)
Text: The effect of treatment of Caki-1 cells with the target compounds was further evaluated by monitoring the cell morphology of treated cells, see FIG. 52.

Cc1cnc(Nc2ccc(N3CCN(C)CC3)cc2)nc1Nc1cccc(S(=O)(=O)NC2CCC2)c1 [Compound M5, N-cyclobutyl-3-((5-methyl-2-((4-(4-methylpiperazin-1-yl)phenyl)amino)pyrimidin-4-yl)amino)benzenesulfonamide]
expression levels of BUB1B (Western blot) (BUB1B): significantly lower the expression levels of BUB1B | expression levels of BUB1B (summary statement) (BUB1B): reduction of the expression levels of BUB1B | change of IC50 values after 2 days compared to 1 day treatment (Caki-1 cells [1]): largest decrease | reduction in cell viability (MTT) (Caki-1 cells [1]; Caki-1, 5 μM, first batch): the greatest | effect on cell viability (MTT) (Caki-1 cells [1]; Caki-1, 10 μM, first batch): greatest reduction of cell viability | cell viability over the treatment period (MTT) (Caki-1 cells [1]; Caki-1, 10 μM): larger decrease in cell viability than TG-101209 | IC50 values compared with TG-101209 (Caki-1 cells [1]): better IC50 values than TG-101209 | cell viability of treated cells (summary statement) (Caki-1 cells [1]): especially low cell viability; also recorded: particularly low cell viability | cytotoxic effect and dose dependence (Caki-1 cells [2]): dose dependent toxicity | cytotoxicity (LDH assay) (Caki-1 cells [2]; first batch): highest cytotoxicity | Ranking, Cytotoxicity (%) (Caki-1 cells [2]): 2 | mechanism according to morphology evaluation (Caki-1 cells [3]): cell growth inhibition mechanism | effect on the cell morphology (Caki-1 cells [3]): distinct effect on the cell morphology

Cc1ccc(Nc2ncc(C)c(Nc3cccc(S(=O)(=O)NC(C)(C)C)c3)n2)cc1S(N)(=O)=O [Compound M66, N-(tert-butyl)-3-((5-methyl-2-((4-methyl-3-sulfamoylphenyl)amino)pyrimidin-4-yl)amino)benzenesulfonamide]
expression levels of BUB1B (Western blot) (BUB1B): significantly lower the expression levels of BUB1B | expression levels of BUB1B (summary statement) (BUB1B): reduction of the expression levels of BUB1B | reduction in cell viability (MTT) (Caki-1 cells [1]; Caki-1, 5 μM, first batch): the greatest | effect on cell viability (MTT) (Caki-1 cells [1]; Caki-1, 10 μM, first batch): most profound effect | cell viability of treated cells (summary statement) (Caki-1 cells [1]): particularly low cell viability; also recorded: significantly reduced cell viability | cytotoxicity (LDH assay) (Caki-1 cells [2]; first batch): exhibited cytotoxicity | Ranking, Cytotoxicity (%) (Caki-1 cells [2]): 4

COc1cc(Nc2ncc(C)c(Nc3cccc(S(=O)(=O)NC(C)(C)C)c3)n2)cc(OC)c1OC [Compound M76, N-(tert-butyl)-3-((5-methyl-2-((3,4,5-trimethoxyphenyl)amino)pyrimidin-4-yl)amino)benzenesulfonamide]
expression levels of BUB1B (Western blot) (BUB1B): ability to lower the expression levels of BUB1B | expression levels of BUB1B (summary statement) (BUB1B): reduction of the expression levels of BUB1B | change of IC50 values after 2 days compared to 1 day treatment (Caki-1 cells [1]): largest decrease | reduction in cell viability (MTT) (Caki-1 cells [1]; Caki-1, 10 μM, second batch): the greatest | cell viability over the treatment period (MTT) (Caki-1 cells [1]; Caki-1, 10 μM): larger decrease in cell viability than TG-101209 | IC50 values compared with TG-101209 (Caki-1 cells [1]): better IC50 values than TG-101209 | IC50 value after treatment for 1 day (Caki-1 cells [1]; Caki-1, doses 10 nM to 30 μM (FIG. 53)): lowest IC50 value | reduction in cell viability according to MTT assay (conclusion) (Caki-1 cells [1]): greatest reduction in cell viability | cell viability of treated cells (summary statement) (Caki-1 cells [1]): especially low cell viability; also recorded: significantly reduced cell viability | cytotoxic effect and dose dependence (Caki-1 cells [2]): dose dependent toxicity | cytotoxicity according to LDH assay (conclusion) (Caki-1 cells [2]): greatest cytotoxicity | mechanism according to morphology evaluation (Caki-1 cells [3]): cell growth inhibition mechanism | effect on the cell morphology (Caki-1 cells [3]): distinct effect on the cell morphology

Cc1cnc(Nc2ccc(C(=O)Nc3ccc(N4CCN(C)CC4)cc3)cc2)nc1Nc1cccc(S(=O)(=O)NC(C)(C)C)c1 [Compound M101N, 4-((4-((3-(N-(tert-butyl)sulfamoyl)phenyl)amino)-5-methylpyrimidin-2-yl)amino)-N-(4-(4-methylpiperazin-1-yl)phenyl)benzamide]
expression levels of BUB1B (Western blot) (BUB1B): did not affect the expression levels of BUB1B | reduction in cell viability (MTT) (Caki-1 cells [1]; Caki-1, 10 μM, second batch): the greatest | cell viability over the treatment period (MTT) (Caki-1 cells [1]; Caki-1, 10 μM): larger decrease in cell viability than TG-101209 | reduction in cell viability according to MTT assay (conclusion) (Caki-1 cells [1]): greatest reduction in cell viability | cell viability of treated cells (summary statement) (Caki-1 cells [1]): particularly low cell viability; also recorded: significantly reduced cell viability | cytotoxicity (LDH assay) (Caki-1 cells [2]; second batch): greatest cytotoxicity | cell death / toxicity (LDH) (Caki-1 cells [2]): strong toxicity | cytotoxicity according to LDH assay (conclusion) (Caki-1 cells [2]): greatest cytotoxicity | cytotoxicity (summary statement) (Caki-1 cells [2]): high cytotoxicity | mechanism according to morphology evaluation (Caki-1 cells [3]): work as cytotoxic agents | effect on the cell morphology (Caki-1 cells [3]): distinct effect on the cell morphology

Cc1cnc(Nc2ccc(C(=O)Nc3ccc(OCCN4CCCC4)cc3)cc2)nc1Nc1cccc(S(=O)(=O)NC(C)(C)C)c1 [Compound M101P, 4-((4-((3-(N-(tert-butyl)sulfamoyl)phenyl)amino)-5-methylpyrimidin-2-yl)amino)-N-(4-(2-(pyrrolidin-1-yl)ethoxy)phenyl)benzamide]
expression levels of BUB1B (Western blot) (BUB1B): ability to lower the expression levels of BUB1B | reduction in cell viability (MTT) (Caki-1 cells [1]; Caki-1, 10 μM, second batch): the greatest | cell viability over the treatment period (MTT) (Caki-1 cells [1]; Caki-1, 10 μM): larger decrease in cell viability than TG-101209 | reduction in cell viability according to MTT assay (conclusion) (Caki-1 cells [1]): greatest reduction in cell viability | cell viability of treated cells (summary statement) (Caki-1 cells [1]): particularly low cell viability; also recorded: significantly reduced cell viability | cytotoxicity (LDH assay) (Caki-1 cells [2]; second batch): greatest cytotoxicity | cell death / toxicity (LDH) (Caki-1 cells [2]): strong toxicity | cytotoxicity according to LDH assay (conclusion) (Caki-1 cells [2]): greatest cytotoxicity | cytotoxicity (summary statement) (Caki-1 cells [2]): high cytotoxicity | mechanism according to morphology evaluation (Caki-1 cells [3]): work as cytotoxic agents | effect on the cell morphology (Caki-1 cells [3]): distinct effect on the cell morphology

COc1cc(Nc2ncc(C)c(Nc3cccc(S(=O)(=O)NC4CCC4)c3)n2)cc(OC)c1OC [Compound M120, N-cyclobutyl-3-((5-methyl-2-((3,4,5-trimethoxyphenyl)amino)pyrimidin-4-yl)amino)benzenesulfonamide]
expression levels of BUB1B (summary statement) (BUB1B): reduction of the expression levels of BUB1B | reduction in cell viability (MTT) (Caki-1 cells [1]; Caki-1, 10 μM, second batch): the greatest | cell viability of treated cells (summary statement) (Caki-1 cells [1]): especially low cell viability; also recorded: particularly low cell viability; also recorded: significantly reduced cell viability

Cc1ccc(Nc2ncc(C)c(Nc3ccc(N4CCN(C)CC4)cc3)n2)cc1S(N)(=O)=O [Compound M123, 2-methyl-5-((5-methyl-4-((4-(4-methylpiperazin-1-yl)phenyl)amino)pyrimidin-2-yl)amino)benzenesulfonamide]
expression levels of BUB1B (summary statement) (BUB1B): reduction of the expression levels of BUB1B | cell viability of treated cells (summary statement) (Caki-1 cells [1]): particularly low cell viability; also recorded: significantly reduced cell viability
